How the values were obtained:
[1] = tested on: intracellular ROS in Raw264.7 cells; assay: LPS-induced intracellular ROS production (CM-H2DCFDA); type: cell-based; conditions: LPS/PLAG treatment
Method: Raw264.7 cells were divided into two groups: 1) LPS treated group and 2) LPS/PLAG treated group. For LPS treated group, cells were stimulated with LPS (100 ng/ml) for 0, 15, 30, 45, 60, 75, 90, 105, 120 minutes. For LPS/PLAG treatment, cells were pre-incubated with PLAG (100 ng/ml) for 1 hour and then stimulated with LPS (100 ng/ml) for 0, 15, 30, 45, 60, 75, 90, 105, 120 minutes. To detect intracellular ROS, cells were treated with […]CM-H2DCFDA (Invitrogen, Carlsbad, Calif., USA) for 30 minutes before LPS treatment for LPS treated group and before PLAG treatment for LPS/PLAG treated group. For confocal microscopy analysis, cells were washed with PBS and mounted in DAPI-containing fluorescence microscopy mounting medium (Invitrogen). Samples were analyzed with a laser scanning confocal microscope (Carl Zeiss, Oberkochen, Germany).
Raw264.7 cells were divided into two groups: 1) LPS treated group and 2) LPS/PLAG treated group. For the LPS treated group, cells were treated with 100 μg/ml of DMSO (as solvent control) for 1 hour and treated with LPS (100 ng/ml) for 15, 30, 60, and 120 minutes. For LPS/PLAG treated group, cells were treated with PLAG (100 μg/ml) for 1 hour and treated with LPS (100 ng/ml) for 15, 30, 60, and 120 minutes. […] These were analyzed by confocal microscopy. […]

[2] = tested on: ADORA2A on the surface of HaCaT cells; assay: IMQ-induced ADORA2A trafficking, confocal microscopy; type: cell-based; conditions: IMQ 5 μg/ml after PLAG 100 μg/ml 1 hour
Method: HaCaT cells were divided into two groups: 1) IMQ treated group and 2) IMQ/PLAG treated group. For IMQ treated group, cells were stimulated with IMQ (5 μg/ml) for 0, 2.5, 5, 7.5, 10, 15, 30, 60, 120 minutes. For IMQ/PLAG treated group, cells were pre-incubated with PLAG (100 μg/ml) for 1 hour and then stimulated with IMQ (5 μg/ml) for 0, 2.5, 5, 7.5, 10, 15, 30, 60, 120 minutes. (A) To detect ADORA2A on the membrane surface, cells were fixed with 2% paraformaldehyde (Sigma-Aldrich) and were blocked with PBS containing 1% BSA (Gibco, Waltham, Mass., USA). They were incubated with rabbit anti-ADORA2A antibody (Thermo) and Alexa488 conjugated anti-rabbit IgG (Invitrogen) without permeabilization. (B) To detect intracellular ROS, cells were treated with FITC conjugated-CM-H2DCFDA (Invitrogen, Carlsbad, Calif., USA) for 30 min before PLAG treating. For confocal microscopy analysis, cells were washed with PBS and mounted in DAPI-containing fluorescence microscopy mounting medium (Invitrogen). Samples were analyzed with a laser scanning confocal microscope (Carl Zeiss, Oberkochen, Germany).

[3] = tested on: apoptotic neutrophils (differentiated HL60) co-cultured with macrophage (differentiated THP-1); assay: Efferocytosis index and apoptotic cell clearance; type: cell-based, human
Method: THP-1 and HL60 cells were obtained from the American Type Culture Collection (ATCC, Rockville, Md., USA). THP-1 cells were grown in RPMI1640 medium (WELGENE, Seoul, Korea) containing 10% fetal bovine serum (HyClone, Waltham, Mass., USA), 1% antibiotics (100 mg/l streptomycin, 100 U/ml penicillin), and 0.4% 2-Mercaptoethanol (Sigma Aldrich, St. Louis, Mo., USA). HL60 cells were grown in RPMI1640 medium containing 20% fetal bovine serum and 1% antibiotics (100 mg/l streptomycin, 100 U/ml penicillin). Cells were grown at 37° C. in a 5% CO2 atmosphere. To differentiate THP-1 cells into macrophage-like cells, cells were grown in medium with 1% Phorbol 12-myristate 13-acetate (PMA) (Sigma Aldrich) for 72 h. To differentiate […] cells into neutrophil-like cells, cells were grown in medium with 10% DMSO (Sigma Aldrich) for 5 days
Differentiation HL60 was stained with […] CellTracker Red CMTPX (Molecular probes, Eugene, OG, USA) for 30 minutes in PBS and lead to apoptosis by PMA treatment for 24 hours. […] Efferocytotic index was analyzed by FACS (BD bioscience, Franklin Lakes, N.J., USA). […]
Differentiation HL60 was stained with […] CellTracker Red CMTPX (Molecular probes, Eugene, OG, USA) for 30 minutes in PBS and lead to apoptosis by PMA treatment. […] Fluorescence overlay videos were recorded using ZEN program (Carl Zeiss, Thornwood, NY, USA)

[4] = tested on: chemo-radiation induced oral mucositis; assay: Chemo-radiation induced oral mucositis (CRIOM), Example 48; type: in vivo, mice
Method: Mice (7-9 weeks, Balb/[…]) were administered intraperitoneally 5-FU (100 mg/kg, Sigma Aldrich). After 1 hr, mice head received 20 Gy using x-ray irradiatior (X-RAD 320, 1.8 Gy/min). Custom-made lead shields were used for mice to limit the radiation to the heads. PLAG (Enzychem Lifesciences Co.) was administered orally with 250 mg/kg once daily. The experimental design of the study was represented in schematic design. […] Toluidine blue stains ribonucleotides and detect inflammatory tissues.

## CCCCC/C=C\C/C=C\CCCCCCCC(=O)OC(COC(C)=O)COC(=O)CCCCCCCCCCCCCCC (racemic) [PLAG, 1-palmitoyl-2-linoleoyl-3-acetylglycerol]
[1]
  ROS production initiated: 15 min
  return to homeostatic levels of intracellular ROS: 60 min
[2]
  GPCR (ADORA2A) returns to its membrane: 10 min
  GPCR (ADORA2A) trafficking starts: 2.5 min
[3]; PLAG 100 μg/mL, confocal
  clearance of apoptotic neutrophils by macrophage phagocytosis observed within: ≤ 30 min
[3]; dose-dependently
  efferocytosis of apoptotic neutrophils (efferocytotic index): promotes
[4]; PLAG 250 mg/kg once daily, day 9
  mucositis and ulcer in tongues: no mucositis and ulcer
[4]; PLAG treated group n=8, day 9
  mice tongues stained with toluidine blue: one out of eight

Reference: patent US20220339135A1, “COMPOSITIONS AND METHODS FOR MODULATING AN INFLAMMATORY RESPONSE” (Enzychem Lifesciences Corporation, priority 2019, published 2022)
